According to paper PMC11510591, “In Vitro Evaluation of Pharmacokinetic Properties of Selected Dual COX-2 and 5-LOX Inhibitors” (Pharmaceuticals, 2024):
Values after ≈ are worked out from the molar mass of the structure shown. Values joined by “and” are separate entries in the source; they are usually repeats but may differ in a detail not shown here. Equal entries are not always repeated. Marks after values point to notes of the source that are not given here.

Experiments:
[1] = PAMPA test (hexadecane membrane), passive gastrointestinal absorption; format: in vitro ADME; conditions: for Papp at 5 h, 0.05 mM / –logPe: donor pH 5.5, acceptor pH 7.4, 5 h, room temperature; for Papp at 5 h, 0.05 mM: read-out: Pe (effective passive permeability coefficient)
Description: The PAMPA test uses a 96-well plate coated with an impregnated filter material, forming an artificial membrane that separates donor and acceptor compartments. Egg lecithin in dodecane is commonly used to simulate membrane lipids, while hexadecane is effective for mimicking gastrointestinal membranes. […] Therefore, hexadecane dissolved in hexane was chosen in this study.
The phosphate buffer solution was prepared by dissolving 0.5292 g of NaH2PO4 × H2O and 0.0234 g of Na2HPO4 in purified water (200 mL). The phosphate buffer was divided into two portions, and the pH was adjusted to pH 5.5 and pH 7.4 using o-phosphoric acid. The donor solutions were prepared by diluting the stock solutions (5 mM DMSO solutions) with the buffer pH 5.5 to obtain the final concentration of 0.05 mM (the DMSO concentration in the donor solutions was 1%), while the acceptor solution was prepared as a 1% DMSO solution in the buffer pH 7.4. The use of DMSO as a cosolvent in PAMPA is necessary in cases of low-soluble compounds. It is usually used in concentrations up to 5% [25, 55, 56, 57].
The PAMPA test was performed according to the literature procedure using a 96-well microtiter polycarbonate filter plate (Merck Millipore, Carrigtwohill, Ireland) that was impregnated with 15 µL of a hexadecane/hexane (5:95, v/v) solution [52]. Donor solutions (300 µL per well) were transferred into each well of the donor plate. Acceptor solution was transferred into each well (300 µL per well) of the acceptor plate (MSSACCEPTOR, Millipore, Burlington, MA, USA) and covered by the donor plate to create a PAMPA sandwich. The system was incubated at room temperature for 5 h at a vibratory mixer. After incubation, the PAMPA sandwich was dissociated, and concentrations of all tested compounds in each well, as well as in the starting solutions, were determined using the HPLC method (Section 3.3.1).
The concentrations of tested compounds in the starting solutions, as well as in the donor and acceptor sections after incubation, were determined by the HPLC method on the Dionex Ultimate 3000 (Thermo Fisher Scientific, Waltham, MA, USA) equipped with a quaternary pump, autosampler, and DAD detector using a ZORBAX Eclipse XDB-C18 4.6 × 150 mm, 5 µm column (Agilent Technologies, Santa Clara, CA, USA).
R represents the retention, which is defined as the fraction of the tested compound retained in the PAMPA membrane (filters and plate materials), CD(t) is the concentration of a tested compound in a donor compartment after incubation time t, CA(t) is the concentration of a tested compound in an acceptor compartment after incubation time t, while CD(0) represents the concentration of a tested compound in a donor compartment at the beginning of the incubation (starting solution).

[2] = tested on: CD-1 mouse liver microsomes; conditions: pH 7.4; for Peak Area, t0: 0 min
Description: Microsomal stability (and thus susceptibility to metabolism) was tested using microsomes derived from CD-1 mouse liver. According to the applied protocol, both phases of metabolism were activated by the addition of cofactors NADPH and UDP-GlcUA. […] Stock solutions of all tested compounds (5 mM DMSO solutions) were diluted with 0.1 M potassium phosphate buffer pH 7.4 to obtain 0.1 mM solutions, which were further incubated according to the protocol. In order to activate both the 1st and 2nd phases of metabolism, NADPH and UDP-GlcUA were used as cofactors. Tested compounds were incubated at 37 °C for 30 min, and the incubation was quenched immediately after the addition of cofactors (t0) and after the defined incubation time (t) by mixing 100 µL of corresponding incubation mixtures with 200 µL of cold acetonitrile. All compounds were tested in duplicates, and their concentrations were determined using the HPLC-MS/MS method (Section 3.7.1).
The HPLC-MS/MS analysis was performed on the UHPLC chromatograph ACELLA (Thermo Fisher Scientific Inc., Madison, WI, USA), coupled to a triple quadrupole mass spectrometer TSQ Quantum Access MAX (Thermo Fisher Scientific Inc., Madison, WI, USA) with a heated electrospray ionization (HESI) interface. The column used was Zorbax Extend C18 (150 mm × 4.6 mm, 5 µm; Agilent Technologies), which was thermostated at 25 °C. The mobile phase consisted of acetonitrile and 0.1% formic acid (60:40, v/v), with a flow rate of 500 µL/min. The injection volume was 10 µL.

[3] = Stability in acidic medium (0.01 M HCl); format: physicochemical; conditions: for The Decrease in Peak Area (%): 0.01 M HCl pH 2, 2 h; for Peak Area, t: 0.01 M HCl pH 2, after 2 h; for Peak Area, t0: 0.01 M HCl pH 2, start of incubation
Description: In order to test gastric stability, compounds were incubated in 0.01 M HCl (pH = 2) for 2 h. Moreover, 0.01 M HCl was chosen because this acid is naturally present in the stomach and simulates its pH (between 1 and 3), while incubation time (2 h) corresponds to the average retention of drugs in the stomach after an oral administration. Peak areas at the beginning (t0) and at the end of the incubation (t) and the decrease in peak areas between these two time points are presented in Table 5.
Acidic medium was simulated by a 0.01 M HCl solution, which was prepared by diluting 0.1 M HCl with distilled water. Stock solutions of tested compounds (5 mM DMSO solutions) were diluted with the medium to obtain a concentration of 0.05 mM. Tested compounds were investigated immediately after preparation (t0) and after a defined incubation time (t) by injecting these solutions into the HPLC chromatograph in duplicates (the HPLC method used was the same as described in Section 3.3.1). The difference between peak areas at t0 and t time points and the eventual occurrence of additional chromatographic peaks after incubation were analyzed.

Solubility in water = format: physicochemical; conditions: distilled water, thermodynamic from solid, room temperature
Description: As discussed in the previous section, all tested compounds are dominantly unionized in the whole range of physiologically important pH values (2 < pH ≤ 7.4). Therefore, water was used for the determination of solubility. […] According to USP34, all tested compounds can be defined as practically insoluble since their solubilities are ≤100 mg/L [54].
Solubility of tested compounds was investigated at room temperature. Compounds were weighed on a scale (5 mg each) and transferred to flasks. In a stepwise procedure, increasing volumes of distilled water were added, and after each addition of an amount of water, the mixture was placed on an ultrasound bath for 5 min and visually inspected for undissolved parts of the sample. When no […] could be observed, the mixture was transferred into a glass cylinder, and opalescence was compared with water. If the mixture was not more opalescent than the solvent, the solvation was considered to be achieved. Solubility of a compound is defined according to the amount of solvent required to dissolve 1 mg.

COc1ccc2c(c1)c(CNC(=O)NO)c(C)n2C(=O)c1ccc(Cl)cc1 [Compound 1]
Papp at 5 h, 0.05 mM ([1]; PAMPA): 42.9 ×10⁻⁶ cm/s | Peak Area, t0 [2]: 131.5 ± 16.8 ×10^3 | Peak Area, t ([2]; 30 min): 60.5 ± 6.4 ×10^3 | The Decrease in Peak Area (%) [3]: 0.07 (p = 0.2839) ^a % | Peak Area, t [3]: 8.27 ± 0.00 | Peak Area, t0 [3]: 8.28 ± 0.01 | solubility at 5 min (Solubility in water): 1.5 µg/mL (≈ 3.87 µM)

O=C(NO)NCc1ccccc1Nc1c(Cl)cccc1Cl [Compound 3]
Papp at 5 h, 0.05 mM ([1]; PAMPA): 77.3 ×10⁻⁶ cm/s | –logPe [1]: 4.11 ± 0.02 | Peak Area, t0 [2]: 1033.6 ± 42.5 ×10^3 | Peak Area, t ([2]; 30 min): 455.5 ± 8.9 ×10^3 | The Decrease in Peak Area (%) [3]: 2.33% and 2.33 (p = 0.0159) % | Peak Area, t [3]: 6.27 ± 0.10 | Peak Area, t0 [3]: 6.42 ± 0.11 | solubility at 5 min (Solubility in water): 5.45 µg/mL (≈ 16.7 µM)

CC(=O)N(O)C(C)c1ccc(CC(C)C)cc1 (stereo not shown) [Compound 11]
Membrane retention (R) ([1]; PAMPA): 24% | Papp at 5 h, 0.05 mM ([1]; PAMPA): 146 ×10⁻⁶ cm/s | –logPe [1]: 3.84 ± 0.05 | Peak Area, t0 [2]: 60.0 ± 1.4 ×10^3 | Peak Area, t ([2]; 30 min): 44.6 ± 1.9 ×10^3 | The Decrease in Peak Area (%) [3]: 1.63 (p = 0.073) % | Peak Area, t [3]: 10.83 ± 0.03 | Peak Area, t0 [3]: 11.01 ± 0.02 | solubility at 5 min (Solubility in water): 19.4 µg/mL (≈ 82.2 µM)

CC(NC(=O)NO)c1ccc(-c2ccccc2)c(F)c1 (stereo not shown) [Compound 2]
Papp at 5 h, 0.05 mM ([1]; PAMPA): 17.6 ×10⁻⁶ cm/s | Peak Area, t0 [2]: 16.5 ± 3.1 ×10^3 | Peak Area, t ([2]; 30 min): 9.6 ± 3.0 ×10^3 | The Decrease in Peak Area (%) ([2]; 30 min): 41.65 (p = 0.0034) % | The Decrease in Peak Area (%) [3]: 0.34 (p = 0.4501) % | Peak Area, t [3]: 6.55 ± 0.07 | Peak Area, t0 [3]: 6.57 ± 0.12 | solubility at 5 min (Solubility in water): 14.3 µg/mL (≈ 52.1 µM)

COc1ccc2cc(C(C)N(O)C(C)=O)ccc2c1 (stereo not shown) [Compound 12]
Papp at 5 h, 0.05 mM ([1]; PAMPA): 157 ×10⁻⁶ cm/s | –logPe [1]: 3.81 and 3.81 ± 0.04 | Peak Area, t0 [2]: 43.9 ± 3.2 ×10^3 | Peak Area, t ([2]; 30 min): 18.2 ± 0.1 ×10^3 | The Decrease in Peak Area (%) [3]: 0.24 (p = 0.4399) % | Peak Area, t [3]: 48.54 ± 0.39 | Peak Area, t0 [3]: 48.66 ± 0.49 | solubility at 5 min (Solubility in water): 11.8 µg/mL (≈ 45.4 µM)
